Source: paper PMC5459853, “Cathepsin S inhibition combines control of systemic and peripheral pathomechanisms of autoimmune tissue injury” (Scientific Reports, 2017)

Tests used:
[1] = biological target: Human Cat-B (Homo sapiens, UniProt P07858); test: Enzymatic isoform-selectivity assay, Cat-B; type: biochemical
Protocol: (§1) RO5459072 was provided by F. Hoffmann-La Roche, Ltd., Basel, Switzerland. It is a competitive inhibitor of the active site of Cat-S and its nitrile function allows covalent reversible inhibition of Cat-S. The synthesis of RO5459072 has been described in WO 2010121918 and WO 2013068434. Recombinant cathepsins were produced in-house or were purchased from commercial vendors. Initial enzymatic assays to determine isoform-selectivity in vitro were performed as previously described, [23]. […] For this the Cat-S-dependent hydrolysis of the fluorogenic substrate Z-Phe-Arg-AMC (Sigma Aldrich) was followed at various inhibitor concentrations. The active fraction of Cat-S was detemined as 70% with a HPLC assay measuring modification of Cat-S with the covalent inhibitor LHVS. The buffer (100 mM potassium phosphate, 50 mM NaCl, 5 mM EDTA, 5 mM TCEP, pH 6) was thoroughly degassed prior to perfoming measurements to prevent oxidation of the catalytic cystein residue by dissolved oxygen. For the Ki-determination the substrate was employed at 10 µM = KM. All kinetic measurements were performad on a SFM-3000 stopped-flow instrument (Bio-Logic Science Instruments) and data were analyzed with GraphPad Prism v5.

[2] = biological target: T1, Human Cat-F (Homo sapiens, UniProt Q9UBX1); test: Enzymatic isoform-selectivity assay, Cat-F; type: biochemical
T1 sequence (Q9UBX1 271-484): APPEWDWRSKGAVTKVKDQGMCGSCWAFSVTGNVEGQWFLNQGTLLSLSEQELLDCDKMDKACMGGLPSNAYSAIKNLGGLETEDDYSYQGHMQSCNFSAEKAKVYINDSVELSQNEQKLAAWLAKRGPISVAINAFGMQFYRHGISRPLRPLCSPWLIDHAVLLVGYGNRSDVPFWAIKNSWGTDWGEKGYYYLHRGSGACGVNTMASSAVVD
Protocol: as §1

[3] = test system: diversity panel consisting of nearly 100 receptor binding and enzymatic assays; test: Diversity panel of receptor binding and enzymatic assays; details: 10 µM concentration; data not shown
[4] = biological target: T2, Human Cat-K (Homo sapiens, UniProt P43235); test: Enzymatic isoform-selectivity assay, Cat-K; type: biochemical
T2 sequence (P43235 115-329): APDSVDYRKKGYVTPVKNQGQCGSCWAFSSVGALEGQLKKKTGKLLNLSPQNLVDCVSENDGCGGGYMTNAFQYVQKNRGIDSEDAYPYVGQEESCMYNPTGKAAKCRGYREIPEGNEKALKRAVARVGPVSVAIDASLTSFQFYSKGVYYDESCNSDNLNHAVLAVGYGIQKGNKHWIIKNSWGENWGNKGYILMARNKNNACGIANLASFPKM
Protocol: as §1

[5] = Acute in vivo pharmacodynamics: splenic p10 induction after oral gavage; design: species or system BALB/c mice; details: BALB/c, mouse, plasma; oral gavage 1 mg/kg; read-out: plasma concentration of the inhibitor at maximal p10 induction
Protocol: (§2) For the determination of in-vivo enzyme inhibition activity of Cat-S by RO5459072 BALB/c mice were used. After oral dosing of 0.1 mg/kg to 100 mg/kg of RO5459072, mice were sacrificed after 7 hours and spleens harvested. Invariant chain was quantified by western blot from mouse splenocyte supernatants loaded onto 10% SDS-PAGE gel. Upon transfer onto a nitrocellulose membrane rabbit anti-CD74 (BD Biosciences) was used.
(§3) Supplementary figure 1. Biochemical and pharmacological profile of R05459072. (A) Upregulation of invariant chain p10 levels in human B-cells was estimated by p10 ELISA, upon treatment with increasing concentration of RO5459072. […]
(§4) upregulation in B-cells derived from 6 healthy volunteers. (B) Determination of KM for the fluorogenic substrate Z-Phe-Arg-AMC. (C) Progress curves of hydrolysis of 10 µM Z-Phe-Arg-AMC by 10 nM Cat-S in the presence of no (black dots) or increasing concentration of RO5459072. A linear equation was fitted to the data to determine the slope (solid lines). […]
(§5) the residuals of the fit to the data. (D) Secondary plot of the slopes from panel B as function of RO5459072 concentration (dots with color coding from panel B). The Morrison equation was […]
(§6) active Cat-S converged to [E]0 = 6.9 nM). The dashed red lines indicate the 95 % confidence intervals of the fit to the data. (E) Pharmacodynamics of R05459072 was determined in C57Bl6 mice with increasing amounts of compound as single dose. Plasma levels of compounds were correlated to the upregulation of p10 in spleenocytes.
(§7) Supplementary figure 2. FACS gating strategies used for the different splenic immune cell populations. (A-C) Activated dendritic cells CD11c+CD11b+MHC-II, (D-F) activated macrophages CD11c+F480+MHC-II and (G-H) plasma cells CD138+κ-light chain+
(§8) Supplementary figure 3. Plasma IgG isotypes in MRL-(Fas)lpr mice. Plasma levels of IgG1 (A), IgG2a (B), and IgG2b (C) were determined by ELISA at different time points from the initiation (week 11) to the end of treatment (week 19). Data are expressed as means ± SEM (n=8 to 10 in […]

[6] = biological target: T3, Cat-S (splenic p10 induction) (Mus musculus, UniProt O70370); test: as above; design: species or system BALB/c mice
T3 construct: from tissue; host or cells: mouse spleen / splenocytes after oral dosing
Protocol: as §2, §3, §4, §5, §6, §7, §8

[7] = biological target: Mouse Cat-S (Mus musculus, UniProt O70370); test: Enzymatic isoform-selectivity assay, mouse Cat-S; type: biochemical; details: read-out: apparent IC50, murine Cat-S
Protocol: as §1

- IC50 [1]: > 1000 nM
- IC50, Human Cat-B [1]: No sub-micro molar inhibition
- IC50 [2]: > 1000 nM
- IC50, Human Cat-F [2]: No sub-micro molar inhibition
- inhibition on diversity panel [3]: ≤ 30%
- IC50 [4]: > 1000 nM
- IC50, Human Cat-K [4]: No sub-micro molar inhibition
- concentration at 7 h [5]: 17 nM
- dose of maximal splenic p10 induction ([6]; oral gavage, single doses 0.1–100 mg/kg, spleens after 7 hours): 1 mg/kg
- EC50 ([6]; single oral dose, mice, read-out: p10/li in vivo EC50 (plasma level vs p10 upregulation in splenocytes)): 17 nM
- IC50 [7]: 0.3 nM
SMILES: Cn1cc(-c2ccc(S(=O)(=O)[C@@H]3C[C@@H](C(=O)NC4(C#N)CC4)N(C(=O)C4(C(F)(F)F)CC4)C3)c(C(F)(F)F)c2)cn1 [RO5459072]
